The values that follow come from US20010020002A1, “Androgen activity antagonists as therapies for anorexia, anorexia nervosa and disorders characterized by a pathologically underweight condition” (VELA PHARMACEUTICALS INC., priority 1997, published 2001).

Usually half-life stands for how long it takes for the measured level to halve.

Molecules are shown by their SMILES.

The conditions of series [1]: in vivo; cited from earlier work.
Series [2] in a line: Example 1: flutamide therapy of a patient with anorexia nervosa. In kind it is in vivo, human. The conditions noted are these: person with AN, 250 mg daily, follow-up in one week.
Experimental: The dose of flutamide is increased to 500 mg daily (250 mg twice a day). They then return every month for an assessment of their symptomatology using the Yale-Brown-Cornell Eating Disorder Scale (YBC-EDS).
Series [3] can be described thus: Example 5: flutamide therapy of cachexia in an AIDS patient. In kind it is in vivo, human. The conditions noted are these: person with AIDS, 750 mg daily in three divided doses.

Turning to `CC1(C)NC(=O)N(c2ccc([N+](=O)[O-])c(C(F)(F)F)c2)C1=O` [Nilutamide, nilutamide], the half-life in series [1] was 40 h.
Consider `CC(C)C(=O)Nc1ccc([N+](=O)[O-])c(C(F)(F)F)c1` [flutamide], for which, in series [1], the half-life was 5.2 h. Further, in series [2], the tolerability of therapy entry is on record as “tolerated the therapy well”. Moreover, in series [3], the initial side effects entry is “initial problems with diarrhea and breast tenderness”; the tolerability of therapy entry is on record as “tolerated well”.
